Experimental data reported in article PMC10290372, “Synthesis and tyrosinase inhibitory activities of novel isopropylquinazolinones” (BMC Chemistry, 2023).
Entries after “also recorded” stand apart in the source; their conditions may differ. Like-named read-outs stand apart in the source and are kept apart here.

Columns and labels:
[1] = DPPH radical scavenging assay (antioxidant activity); settings: for % Inhibition at 100 µM: 100 µM compound, mean ± S.E of three independent experiments; for IC50: NA means not active, read-out: IC50 (µM) ± RSD; for antioxidant capacity: result in words
Protocol: In vitro antioxidant activities of the synthesized compounds were determined quantitatively using DPPH radical scavenging assay. DPPH is a stable free radical at room temperature and accepts an electron or hydrogen radical from an antioxidant to become a stable diamagnetic molecule. […] Similar to previous studies, halogens especially fluorine, increases antioxidant activity.
The DPPH antioxidant potencies of all derivatives were performed according to previously published articles.

mushroom tyrosinase = biological target: T1, mushroom tyrosinase (Agaricus bisporus, UniProt C7FF04); assay: Screening of mushroom tyrosinase inhibitory activity (oxidation of L-dopa); type: biochemical; settings: L-dopa substrate, mean ± S.E; for inhibition at 50 µM: 50 µM compound
T1 construct: purchased Sigma-Aldrich, St Louis, MO, USA
Protocol: All newly synthesized compounds (9a–q) were examined for their inhibitory potentials against the tyrosinase enzyme and the results were presented in Table 1 and the structure–activity relationships (SARs) were constructed. […].
Tyrosinase inhibitory activity was determined based on the previously described procedure with a slight modification. In brief, the test reaction mixture comprised 10 µL of each derivative, and 10 µL of mushroom tyrosinase (500 units; Sigma-Aldrich, St Louis, MO, USA) in 160 potassium phosphate buffer (pH = 6.8). The reaction mixture was incubated at 37 °C for 20 min and then 20 µL of L-Dopa (0.5 mmol/L) was added to each well, and the absorption was measured at 475 nm. The absorbance of the same mixture without tyrosinase was used as the control. Kojic acid was used as a positive control. The optical density of the inhibition in the control was considered to represent 100%. The data are expressed as mean percentages and the results were repeated in triplicate.

tyrosinase [2] = settings: cited from earlier work; for IC50: tyrosinase
tyrosinase [3] = biological target: tyrosinase (Agaricus bisporus, UniProt C7FF04); assay: Enzyme kinetic studies of tyrosinase inhibition (Lineweaver-Burk and secondary plots); type: biochemical, mushroom
Protocol: Fig. 2 Kinetics of tyrosinase inhibition by 9q. a The Lineweaver–Burk plot in the absence and presence of different concentrations of 9q; b The secondary plot of slopes of the lines vs various concentrations of 9q; c The secondary plot of 1/Vmax vs various concentrations of 9q
A Lineweaver–Burk plot was generated to identify the type of inhibition and the Michaelis–Menten constant (Km) value was determined from the plot between the reciprocal of the substrate concentration (1/[S]) and reciprocal of enzyme rate (1/V) over various inhibitor concentrations.

B16F10 cell line [4] = tested on: B16F10 cell line; design: method as in PMID 33640246; settings: cited from earlier work
B16F10 cell line [5] = tested on: B16F10 cell line; design: method as in PMID 33640246; settings: cited from earlier work; remark: listed apart in the source

T1 sequence (C7FF04 1-392 limits assumed): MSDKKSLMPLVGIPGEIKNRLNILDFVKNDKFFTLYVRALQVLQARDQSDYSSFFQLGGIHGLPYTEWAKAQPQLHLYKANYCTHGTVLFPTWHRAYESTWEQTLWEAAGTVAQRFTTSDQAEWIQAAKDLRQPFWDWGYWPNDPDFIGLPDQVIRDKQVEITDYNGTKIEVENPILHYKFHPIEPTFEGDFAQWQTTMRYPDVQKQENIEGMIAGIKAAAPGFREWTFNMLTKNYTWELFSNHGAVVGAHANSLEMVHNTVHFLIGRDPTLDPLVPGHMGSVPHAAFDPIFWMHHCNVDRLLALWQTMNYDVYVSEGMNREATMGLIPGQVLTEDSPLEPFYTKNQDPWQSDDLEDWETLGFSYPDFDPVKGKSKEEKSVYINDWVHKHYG
Chain of tyrosinase (Agaricus bisporus, UniProt C7FF04) (C7FF04 2-392): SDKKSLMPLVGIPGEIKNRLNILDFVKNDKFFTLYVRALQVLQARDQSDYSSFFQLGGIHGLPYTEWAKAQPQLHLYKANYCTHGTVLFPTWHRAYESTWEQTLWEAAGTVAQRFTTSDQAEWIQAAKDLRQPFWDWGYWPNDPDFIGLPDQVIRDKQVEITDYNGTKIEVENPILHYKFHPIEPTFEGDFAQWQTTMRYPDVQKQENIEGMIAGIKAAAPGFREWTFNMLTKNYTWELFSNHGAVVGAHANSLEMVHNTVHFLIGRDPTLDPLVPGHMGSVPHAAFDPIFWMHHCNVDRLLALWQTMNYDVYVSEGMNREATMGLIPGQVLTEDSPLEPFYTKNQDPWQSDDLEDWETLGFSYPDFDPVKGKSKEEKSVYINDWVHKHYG

melting point | inhibition at 50 µM (mushroom tyrosinase) | Structure (SMILES) | % Inhibition at 100 µM [1] | also measured
217 to 219 °C | 35.2 ± 3.88% | CC(C)n1c(SCC(=O)Nc2ccc3ccccc3c2)nc2ccccc2c1=O [Compound 9o, 2-((3-isopropyl-4-oxo-3,4-dihydroquinazolin-2-yl)thio)-N-(naphthalen-2-yl)acetamide] | 68.44 ± 4.84% | IC50 [1]: 38.8 µM
– | 54.5 ± 3.94% | CC(C)n1c(SCC(=O)NCc2ccc(F)cc2)nc2ccccc2c1=O [Compound 9q, N-(4-fluorobenzyl)-2-((3-isopropyl-4-oxo-3,4-dihydroquinazolin-2-yl)thio)acetamide] | 60.33 ± 5.53% | IC50 [1]: 40.7 µM; IC50 (mushroom tyrosinase; NA means not active): 34.7 ± 3.68 µM; type of inhibition (tyrosinase [3]; Lineweaver-Burk plot, L-Dopa substrate, 9q at 10-50 µM): mix-type inhibition; also recorded: mix-type inhibitor; also recorded: mixed mode of inhibition; inhibition constant with the enzyme-substrate complex (KIS) (tyrosinase [3]; secondary plot of 1/Vmax vs inhibitor concentration): 87.32 µM
195 to 197 °C | 20.4 ± 4.19% | CCc1ccc(NC(=O)CSc2nc3ccccc3c(=O)n2C(C)C)cc1 [Compound 9k, N-(4-ethylphenyl)-2-((3-isopropyl-4-oxo-3,4-dihydroquinazolin-2-yl)thio)acetamide] | 10.16 ± 4.27% | –
194 to 196 °C | 29.1 ± 5.24% | CC(C)n1c(SCC(=O)NCc2ccccc2)nc2ccccc2c1=O [Compound 9p, N-benzyl-2-((3-isopropyl-4-oxo-3,4-dihydroquinazolin-2-yl)thio)acetamide] | 4.47 ± 2.35% | antioxidant capacity [1]: no antioxidant capacity
222 to 225 °C | 27.3 ± 3.43% | Cc1ccc(NC(=O)CSc2nc3ccccc3c(=O)n2C(C)C)c(C)c1 [Compound 9m, N-(2,4-dimethylphenyl)-2-((3-isopropyl-4-oxo-3,4-dihydroquinazolin-2-yl)thio)acetamide] | 21.12 ± 2.99% | –
215 to 217 °C | 16.3 ± 6.57% | Cc1cccc(C)c1NC(=O)CSc1nc2ccccc2c(=O)n1C(C)C [Compound 9n, N-(2,6-dimethylphenyl)-2-((3-isopropyl-4-oxo-3,4-dihydroquinazolin-2-yl)thio)acetamide] | 44.38 ± 5.03% | –
217 to 219 °C | 18.2 ± 5.52% | Cc1cccc(NC(=O)CSc2nc3ccccc3c(=O)n2C(C)C)c1C [Compound 9l, N-(2,3-dimethylphenyl)-2-((3-isopropyl-4-oxo-3,4-dihydroquinazolin-2-yl)thio)acetamide] | 5.08 ± 2.14% | –

The remaining lines, values behind:

Structure (SMILES) | melting point | inhibition at 50 µM (mushroom tyrosinase) | % Inhibition at 100 µM [1] | also measured
O=c1[nH]c(-c2ccc(F)cc2)nc2ccccc12 [Compound A, 2–4-fluorophenyl-quinazolin-4(3H)-one] | – | – | – | type of inhibition (tyrosinase [2]; kinetic studies): reversible and mixed-type inhibitor; IC50 (tyrosinase [2]; diphenolase activity): 120 ± 2 µM
O=c1c(O)c(-c2ccc(O)c(O)c2)oc2cc(O)cc(O)c12 [Quercetin, reference compound] | – | – | – | IC50 [1]: 18.6 µM
CC(C)=CCC/C(C)=C/c1nc2ccccc2c(=O)[nH]1 [D] | – | – | – | type of inhibition (tyrosinase [2]): mix type inhibition pattern; IC50 (tyrosinase [2]): 103 ± 2 µM
CC(C)n1c(SCC(=O)Nc2ccc(Cl)cc2)nc2ccccc2c1=O [Compound 9d, N-(4-chlorophenyl)-2-((3-isopropyl-4-oxo-3,4-dihydroquinazolin-2-yl)thio)acetamide] | 211 to 213 °C | 26.9 ± 4.67% | 42.78 ± 4.86% | –
Cc1ccccc1NC(=O)CSc1nc2ccccc2c(=O)n1C(C)C [Compound 9g, 2-((3-isopropyl-4-oxo-3,4-dihydroquinazolin-2-yl)thio)-N-(o-tolyl)acetamide] | 196 to 198 °C | 34.6 ± 4.67% | – | –
CC(C)n1c(SCC(=O)Nc2ccccc2)nc2ccccc2c1=O [Compound 9a, 2-((3-Isopropyl-4-oxo-3,4-dihydroquinazolin-2-yl)thio)-N-phenylacetamide] | 190 to 192 °C | 21.6 ± 3.79% | 2.941 ± 1.76% | antioxidant capacity [1]: no antioxidant capacity
CC(C)n1c(SCC(=O)Nc2ccc(Br)cc2)nc2ccccc2c1=O [Compound 9e, N-(4-bromophenyl)-2-((3-isopropyl-4-oxo-3,4-dihydroquinazolin-2-yl)thio)acetamide] | 203 to 205 °C | 24.8 ± 3.12% | 41.44 ± 3.85% | –
CC(C)n1c(SCC(=O)Nc2ccc([N+](=O)[O-])cc2)nc2ccccc2c1=O [Compound 9f, 2-((3-isopropyl-4-oxo-3,4-dihydroquinazolin-2-yl)thio)-N-(4-nitrophenyl)acetamide] | 216 to 218 °C | 32.7 ± 5.67% | 4.87 ± 1.65% | –
CC(C)n1c(SCC(=O)Nc2ccccc2Cl)nc2ccccc2c1=O [Compound 9b, N-(2-chlorophenyl)-2-((3-isopropyl-4-oxo-3,4-dihydroquinazolin-2-yl)thio)acetamide] | 207 to 209 °C | 38 ± 4.68% | 26.47 ± 2.48% | –
O=c1cc(CSc2nc3ccccc3c(=O)n2Cc2ccccn2)occ1O [C] | – | – | – | IC50 (tyrosinase [2]): 0.46 ± 0.9 µM; melanin content (B16F10 cell line [4]): reduced the melanin content; toxicity (B16F10 cell line [5]): limited toxicity
CC(C)N1C(=O)c2ccccc2NC1SCc1ccccc1 (stereo not drawn) [F] | – | – | – | IC50 (tyrosinase [2]): 71 ± 3.37 µM
Cc1ccc(NC(=O)CSc2nc3ccccc3c(=O)n2C(C)C)cc1 [Compound 9h, 2-((3-isopropyl-4-oxo-3,4-dihydroquinazolin-2-yl)thio)-N-(p-tolyl)acetamide] | 199 to 201 °C | 26.7 ± 6.42% | 29.41 ± 1.76% | –
CC(C)n1c(SCC(=O)Nc2ccc(O)cc2)nc2ccccc2c1=O [Compound 9j, N-(4-hydroxyphenyl)-2-((3-isopropyl-4-oxo-3,4-dihydroquinazolin-2-yl)thio)acetamide] | 193 to 195 °C | 35.5 ± 4.91% | 40.83 ± 4.53% | –
CC(C)n1c(SCC(=O)Nc2cccc(Cl)c2)nc2ccccc2c1=O [Compound 9c, N-(3-chlorophenyl)-2-((3-isopropyl-4-oxo-3,4-dihydroquinazolin-2-yl)thio)acetamide] | 203 to 205 °C | 27.8 ± 1.19% | 18.71 ± 5.39% | –
CC(C)n1c(=S)[nH]c2ccccc2c1=O [E] | – | – | – | IC50 (tyrosinase [2]): 15.5 ± 1.19 µM
COc1ccc(NC(=O)CSc2nc3ccccc3c(=O)n2C(C)C)cc1 [Compound 9i, 2-((3-isopropyl-4-oxo-3,4-dihydroquinazolin-2-yl)thio)-N-(4-methoxyphenyl)acetamide] | 205 to 207 °C | 25.4 ± 3.13% | 20.05 ± 3.47% | –
